Values of other authors in patent US20150132345A1, “NITRIC OXIDE-SEQUESTERING TOPICAL FORMULATIONS” (priority 2011, published 2015).

What was measured:
Conditions in all cases: multiple 30 minutes treatments of 160 ppm nitric oxide
[1] = system: Staphylococcus aureus
[2] = system: Pseudomonas aeruginosa
[3] = system: Escherichia coli

Compound: [N]=O [nitric oxide]
- decrease in the bacterial load [1]: > 5 log 10 colony forming unit per milliliter (CFU/ml)
- decrease in the bacterial load [2]: > 5 log 10 colony forming unit per milliliter (CFU/ml)
- decrease in the bacterial load [3]: > 5 log 10 colony forming unit per milliliter (CFU/ml)
